What is called IC50 is the concentration that inhibits the measured activity by half.

Molecules are shown by their SMILES.

This test relates to HeLa cells. Briefly: Measurement of the cell cycle inhibition in HeLa cells. The conditions noted are these: HeLa B cells, 20 h incubation with compound; FACS ratio G0/G1 to G2/M vs DMSO; concentration at which 50% of cells are in cell cycle arrest. Format: cell-based. The protocol: Measurement of the Cell Cycle Inhibition in HeLa Cells—Test Procedure:
HeLa B cells are grown in DMEM (Life Technologies Cat No 21969-035) supplemented with 10% Fetal Calf Serum (FCS, Life Technologies Cat No 10270-106) in 180 cm^2 Flasks at 37° C., 92% humidity and 7% CO2.
Cells are seeded at 5×10^4 cells per well in a 24-well plate. Twenty hours later the compounds are added such that the final concentration is 1×10^−6, 3.3×10^−7, 1.1×10^−7, 3.7×10^−8, 1.2×10^−8 and 1×10^−9 M in a final volume of 500 μl. DMSO alone is added to 6 wells as a control. Cells are incubated with the compounds as above for 20 h. Then cells are observed under the microscope to check for cell death, and the 24-well plate is then centrifuged at 1200 rpm for 5 min at 20° C., acceleration position 7 and break position 5 (Eppendorf centrifuge 5804R).
The supernatant is removed and the cells lysed with 0.5 ml RNase Buffer (10 mM NaCitrate, 0.1% Nonidet NP40, 50 μg/ml RNase, 10 μg/ml Propidium iodide) per well. The plates are then incubated for at least 30 min in the dark at RT and the samples then transferred to FACS tubes. Samples are measured in a FACS machine (Beckton Dickinson) at the following settings:
Instrument Settings of the FACS Calibur:
The ratio of cells in G0/G1-phase to G2/M phase is calculated and compared to the value for the controls (DMSO) only. Results are given in table 2 as the IC50 value calculated from the concentration curve plotted against the cell cycle ratio and indicate the compound concentration at which 50% of cells are in cell cycle arrest after treatment with the compound.
`Cc1nc(C(N)=NO)nc(N[C@@H](C)C(F)(F)F)c1-c1c(F)cc(F)cc1F` [Example 171]: the IC50 came out at 54 nM.

Regarding `C[C@H](Nc1nc(C(N)=NO)nc(Cl)c1-c1c(F)cccc1F)C(F)(F)F` [Example 175], the IC50 came to 18 nM.

Turning to `CC(C)Nc1nc(-n2ccc(C(F)(F)F)n2)nc(Cl)c1-c1c(F)cc(F)cc1F` [Example 16], the IC50 is 46 nM.

Take `Cc1ccc(-c2c(Cl)nc(-n3ccc(N)n3)nc2NCC(F)(F)F)c(F)c1` [Example 149]: the half-maximal inhibitory concentration (IC50) came out at 41 nM.

Regarding `C=CCN(CC=C)c1nc(-n2ccc(N)n2)nc(Cl)c1-c1ccc(F)cc1Cl` [Example 135], the IC50 is 18 nM.

With `CCC(C)Nc1nc(-n2ccc(N)n2)nc(Cl)c1-c1c(C)cccc1F` (centres unmarked) [Example 143], the half-maximal inhibitory concentration (IC50) stood at 32 nM.

Consider `COc1ccc(-c2c(Cl)nc(C(C)=NO)nc2N[C@@H](C)C(C)C)c(Cl)c1` [Example 200], for which the IC50 came to 47 nM.

For the compound `COc1cc(F)c(-c2c(Cl)nc(C(N)=NO)nc2N[C@@H](C)C(F)(F)F)c(F)c1` [Example 181], the IC50 was 6 nM.

In the case of `CC(C)C(C)Nc1nc(-c2ccccn2)nc(Cl)c1-c1c(F)cccc1F` (centres unmarked) [Example 82], the IC50 was 30 nM.

As to `CON=C(N)c1nc(Cl)c(-c2c(F)cc(F)cc2F)c(N[C@H](C)C(F)(F)F)n1` [Example 130], the IC50 was 1.8 nM.

In the case of `CON=C(N)c1nc(Cl)c(-c2ccc(F)cc2Cl)c(N2CCCC2C)n1` (centres unmarked) [Example 170], the IC50 turned out to be 59 nM.

As for `C[C@H](Nc1nc(C#N)nc(Cl)c1-c1c(F)cc(F)cc1F)C(F)(F)F` [Example 10], the 50% inhibitory concentration (IC50) came to 47 nM.

As for `CC(C)Nc1nc(-c2ccccn2)nc(Cl)c1-c1c(F)cc(F)cc1F` [Example 2], the IC50 is 48 nM.

Turning to `CC(C)Nc1nc(-n2cc(Br)cn2)nc(Cl)c1-c1c(F)cc(F)cc1F` [Example 17], the IC50 was determined as 45 nM.

On to `COc1cc(F)c(-c2c(Cl)nc(C(N)=O)nc2N[C@@H](C)C(F)(F)F)c(F)c1` [Example 189], for which the half-inhibitory concentration (IC50) came to 30 nM.

Consider `COc1cc(F)c(-c2c(Cl)nc(-n3ccnn3)nc2N2CCC(C)CC2)c(F)c1` [Example 69], for which the half-maximal inhibitory concentration (IC50) was determined as 21 nM.

For the compound `CON=C(N)c1nc(Cl)c(-c2ccc([N+](=O)[O-])cc2Cl)c(N[C@@H](C)C(C)C)n1` [Example 219], the IC50 worked out at 29 nM.

On to `CON=C(N)c1nc(Cl)c(-c2ccc(F)cc2Cl)c(N[C@@H](C)C(F)(F)F)n1` [Example 211], for which the 50% inhibitory concentration (IC50) was determined as 24 nM.

Regarding `CC(C)[C@H](C)Nc1nc(C(N)=NO)nc(Cl)c1-c1cc(F)ccc1Cl` [Example 201], the IC50 amounted to 30 nM.

`C[C@H](Nc1nc(-n2nccc2[N+](=O)[O-])nc(Cl)c1-c1c(F)cc(F)cc1F)C(F)(F)F` [Example 7]: the half-maximal inhibitory concentration (IC50) came out at 21 nM.

On to `CON=C(N)c1nc(Cl)c(-c2c(F)cccc2F)c(N[C@@H](C)C(F)(F)F)n1` [Example 213], for which the IC50 came to 51 nM.

For the compound `CC1CCN(c2nc(-n3ccnn3)nc(Cl)c2-c2c(F)cccc2Cl)CC1` [Example 49], the IC50 is 10 nM.

Consider `CC1CCN(c2nc(-n3ccnn3)nc(Cl)c2-c2c(F)cccc2F)CC1` [Example 117], for which the concentration for half-maximal inhibition (IC50) worked out at 19 nM.

`CC(C)[C@H](C)Nc1nc(-c2nccs2)nc(Cl)c1-c1c(F)cccc1Cl` [Example 136]: the IC50 was found to be 29 nM.

With `Cc1nc(-n2ccnn2)nc(N2CCC(C)CC2)c1-c1c(F)cccc1Cl` [Example 166], the IC50 was 42 nM.

On to `COc1cc(F)c(-c2c(Cl)nc(C(N)=O)nc2N2CCC(C)CC2)c(F)c1` [Example 188], for which the IC50 amounted to 30 nM.

`Cc1nc(-n2ccnn2)nc(N2CCC(C)CC2)c1-c1c(F)cc(F)cc1F` [Example 90]: the IC50 amounted to 27 nM.

Consider `Cc1nn(-c2nc(Cl)c(-c3c(F)cc(F)cc3F)c(N[C@@H](C)C(F)(F)F)n2)c(C)c1Cl` [Example 3], for which the half-maximal inhibitory concentration (IC50) came to 31 nM.

On to `C[C@H](Nc1nc(-n2ccnn2)nc(Cl)c1-c1c(F)cc(F)cc1F)C(F)(F)F` [Example 205], for which the IC50 turned out to be 8.3 nM.

As for `COCC(C)Nc1nc(-n2ccc(N)n2)nc(Cl)c1-c1ccc(C)cc1F` (centres unmarked) [Example 128], the concentration for half-maximal inhibition (IC50) came out at 38 nM.

As to `CON=C(N)c1nc(Cl)c(-c2c(F)cc(OC)cc2F)c(N[C@@H](C)C(C)C)n1` [Example 198], the IC50 is 15 nM.

As to `Cc1cnn(-c2nc(Cl)c(-c3c(F)cc(F)cc3F)c(NC(C)C)n2)c1` [Example 24], the half-maximal inhibitory concentration (IC50) came to 50 nM.

As to `Cc1cc(C)n(-c2nc(Cl)c(-c3c(F)cc(F)cc3F)c(NC(C)C)n2)n1` [Example 21], the IC50 was 25 nM.

Turning to `Cc1c[nH]n(-c2nc(Cl)c(-c3c(F)cc(F)cc3F)c(N[C@@H](C)C(F)(F)F)n2)c1=O` [Example 153], the IC50 was determined as 27 nM.

For `C=CCN(CC=C)c1nc(-n2cc(Br)cn2)nc(Cl)c1-c1ccc(F)cc1Cl` [Example 134], the half-inhibitory concentration (IC50) was 50 nM.

For `C=C(C)CNc1nc(-n2ccc(N)n2)nc(Cl)c1-c1c(F)cc(F)cc1F` [Example 122], the IC50 was found to be 46 nM.

Take `Cc1cnn(-c2nc(Cl)c(-c3c(F)cc(F)cc3F)c(N[C@@H](C)C(F)(F)F)n2)c1Cl` [Example 155]: the IC50 is 22 nM.

As for `Fc1cc(F)c(-c2c(Cl)nc(-c3nccs3)nc2NC2CCCC2)c(F)c1` [Example 40], the IC50 stood at 23 nM.

Turning to `CCC(C)Nc1nc(ON=C(C)C)nc(Cl)c1-c1c(C)cccc1F` (centres unmarked) [Example 112], the IC50 came to 21 nM.

Consider `CC1CCCN(c2nc(-n3ccnn3)nc(Cl)c2-c2c(F)cc(F)cc2F)C1` (centres unmarked) [Example 42], for which the IC50 was found to be 18 nM.

With `CC(C)[C@H](C)Nc1nc(-n2cccn2)nc(Cl)c1-c1c(F)cc(F)cc1F` [Example 138], the IC50 is 23 nM.

Consider `C[C@H](Nc1nc(-n2cnc(SCc3ccccc3)n2)nc(Cl)c1-c1c(F)cc(F)cc1F)C(F)(F)F` [Example 151], for which the concentration for half-maximal inhibition (IC50) amounted to 8.3 nM.

`CC(C)[C@@H](C)Nc1nc(-n2cncn2)nc(Cl)c1-c1c(F)cccc1Cl` [Example 48]: the half-inhibitory concentration (IC50) came to 13 nM.

On to `CC1CCCCN1c1nc(-n2ccc(N)n2)nc(Cl)c1-c1c(F)cccc1F` (centres unmarked) [Example 127], for which the half-maximal inhibitory concentration (IC50) turned out to be 37 nM.

On to `CCC(C)Nc1nc(-c2csc(C)n2)nc(Cl)c1-c1c(F)cc(F)cc1F` (centres unmarked) [Example 71], for which the half-inhibitory concentration (IC50) was determined as 25 nM.

Take `CC(C)=NOc1nc(Cl)c(-c2c(F)cc(F)cc2F)c(N[C@@H](C)C(F)(F)F)n1` [Example 204]: the 50% inhibitory concentration (IC50) worked out at 23 nM.

For `COc1cc(F)c(-c2c(Cl)nc(-n3cncn3)nc2N2CCC(C)CC2)c(F)c1` [Example 68], the IC50 is 20 nM.

Consider `Cc1ccc(-c2c(Cl)nc(-n3cc(Cl)cn3)nc2NCC(F)(F)F)c(F)c1` [Example 150], for which the IC50 was 50 nM.

`CCON=C(N)c1nc(Cl)c(-c2c(F)cc(F)cc2F)c(N[C@H](C)C(F)(F)F)n1` [Example 158]: the IC50 is 44 nM.

For `Cc1ccnc(-c2nc(Cl)c(-c3c(F)cc(F)cc3F)c(N[C@@H](C)C(F)(F)F)n2)c1` [Example 14], the IC50 stood at 14 nM.

For the compound `CC(C)[C@@H](C)Nc1nc(-n2cnc([N+](=O)[O-])n2)nc(Cl)c1-c1c(F)cc(F)cc1F` [Example 89], the IC50 was 47 nM.

`Cc1nc(C)n(-c2nc(Cl)c(-c3c(F)cccc3Cl)c(N3CCC(C)CC3)n2)n1` [Example 85]: the half-maximal inhibitory concentration (IC50) was found to be 21 nM.

Regarding `Cc1cnn(-c2nc(Cl)c(-c3c(F)cc(F)cc3F)c(N3CCCCC3)n2)c1` [Example 55], the half-maximal inhibitory concentration (IC50) stood at 26 nM.

For the origin of these results see patent US20080146593A1, “Substituted 5-Phenyl Pyrimidines I In Therapy” (Basf Aktiengesellschaft, priority 2005, published 2008).
